How the values were obtained:
[1] = Solubility kinetics in pH 4.5 acetate buffer; format: physicochemical; settings: 37 ° C.
Method: The solubility kinetics of the salt forms as well as the native EYP001 free acid form were determined in FaSSIF and FeSSIF media, and in a pH 4.5 acetate buffer as detailed below:
The samples were prepared by adding an excess of each tested bulk (salt or native EYP001) to a given volume of test medium. The suspension was stirred by orbital stirring over 1 hour (in both pH 4.5 acetate buffer and FeSSIF medium) or 24 hours (inFaSSIF medium) at 37° C., protected from light.
In pH 4.5 acetate buffer, the soluble concentration was assessed after 0.5 hour and 1 hour of stirring.
At each time point, the “supernatant” was isolated and diluted in a solvent mixture allowing its injection into the chromatographic system. The concentration in solution in the test medium was determined by HPLC with external standardization.

[2] = Solubility kinetics in FaSSIF medium; format: physicochemical; settings: after 24 h
Method: The solubility kinetics of the salt forms as well as the native EYP001 free acid form were determined in FaSSIF and FeSSIF media, and in a pH 4.5 acetate buffer as detailed below: The samples were prepared by adding an excess of each tested bulk (salt or native EYP001) to a given volume of test medium. The suspension was stirred by orbital stirring over 1 hour (in both pH 4.5 acetate buffer and FeSSIF medium) or 24 hours ([…] medium) at 37° C., protected from light. In FaSSIF medium, the soluble concentration was assessed after 24 hours of stirring. […] At each time point, the “supernatant” was isolated and diluted in a solvent mixture allowing its injection into the chromatographic system. The concentration in solution in the test medium was determined by HPLC with external standardization.

[3] = Solubility kinetics in FeSSIF medium; format: physicochemical; settings: for Soluble fraction: 37 ° C.
Method: The solubility kinetics of the salt forms as well as the native EYP001 free acid form were determined in FaSSIF and FeSSIF media, and in a pH 4.5 acetate buffer as detailed below: The samples were prepared by adding an excess of each tested bulk (salt or native EYP001) to a given volume of test medium. […] In FaSSIF medium, the soluble concentration was assessed after 24 hours of stirring. […] At each time point, the “supernatant” was isolated and diluted in a solvent mixture allowing its injection into the chromatographic system. The concentration in solution in the test medium was determined by HPLC with external standardization.

[4] = Pharmacokinetic study Experiment #1, oral administration in rats; format: in vivo, rat; settings: rat, in vivo, 50 mg EqEYP001/Kg, male rats, aqueous formulation
Method: (§1) In a first study (Experiment #1), EYP001, EYP001 Meglumine salt, and EYP001 L-lysine salt Form I in aqueous formulations (0.5% CMC, 0.25% Tween 80, water) were orally administrated at a dose of 50 mg EqEYP001/Kg in 3 male rats for each compound. Blood samples were taken at 0.25 h, 0.5 h, 1 h, 2 h, 4 h, 6 h, 8 h, 12 h, and 24 h after oral administration.

[5] = Pharmacokinetic study Experiment #2, oral administration in rats; format: in vivo, rat; settings: rat, in vivo, 50 mg EqEYP001/Kg, male rats, aqueous formulation
Method: as §1, with “second” for “first”, “#2),” for “#1), EYP001,”, “EYP001” for “EYP001 Meglumine salt,”, “8” for “3”

[6] = Pharmacokinetic study Experiment #3, oral administration in rats; format: in vivo, rat; settings: rat, plasma, 10 mg EqEYP001/Kg, male rats, aqueous formulation
Method: as §1, with “third” for “first”, “#3),” for “#1), EYP001,”, “EYP001” for “EYP001 Meglumine salt,”, “10” for “50”, “6-8” for “3”

[7] = Pharmacokinetic study Experiment #4, oral administration in rats; format: in vivo, rat; settings: 10 mg EqEYP001/Kg, male rats
Method: In a fourth study (Experiment #4), EYP001, EYP001 L-lysine salt amorphous Form and EYP001 L-lysine salt Form VI in aqueous formulations (0.5% CMC, 0.25% Tween 80, water) were orally administrated at a dose of 10 mg EqEYP001/Kg in 8 male rats for each compound (4 rats on day 1 and 4 rats on day 2 for each compound). Blood samples were taken at 0.25 h, 0.5 h, 1 h, 2 h, 4 h, 6 h, 8 h, 12 h, and 24 h after oral administration.

[8] = Dynamic Vapor Sorption (DVS) analysis (gas water sorption); format: physicochemical
Method: The dynamic vapor sorption (DVS) analysis (gas water sorption) was performed on a DVS-Intrinsic incubator (SMS Ltd), equipped with DVS-Intrinsic Control Software 1.0. The sample, placed in an aluminium basket holder, was submitted to a full-cycle analysis (sorption followed by desorption cycle) under the following conditions:
The sample was first pre-dried under a stream of dry air until a stabilized sample mass was observed. Then, the relative humidity was increased by 5% increments. At each step, the sample mass was allowed to increase until equilibrium is reached (according to a given dm/dt target), and then a new relative humidity rise occurred. Relative humidity was ramped up to 95%. After equilibration at this point, desorption began in a similar stepwise manner, with sample mass decrease again allowed to stabilize after each incremental humidity decrease.
With both segments of the above-described method, the sample mass recording allowed describing of the whole vapor water sorption/desorption behaviour versus relative humidity.

[9] = Thermogravimetric analysis (TGA), mass losses upon heating; format: physicochemical; settings: listed as EYP001 L-lysine salt (amorphous form)
Method: Thermogravimetric analysis was performed on a TA Instruments TGA Hi-Res 2950 apparatus equipped with an evolved gas analysis furnace. A sample was placed in an opened aluminium basket and analysed according to the following conditions: […]

[10] = Stability of freeze-dried amorphous material under ambient conditions; format: physicochemical
Method: The amorphous material was also prepared by freeze drying of EYP001 L-lysine salt (form I). EYP001 L-lysine salt (form I) was dissolved in CH3CN/H2O (62:38 v:v) at a concentration of 20 mg/mL. Then the solution was freeze-dried to form amorphous EYP001 L-lysine salt. This amorphous material was found stable over at least 19 days under ambient conditions.

[11] = Polymorph screening (solids analysed by XRPD); format: physicochemical; settings: amorphous material as starting material
Method: A polymorph screening was performed on EYP001 L-lysine salt crystalline form I (form I as starting material unless otherwise specified).
A number of unique materials with different patterns were produced, including crystalline forms I-IV and an amorphous material. All solids from the screening experiments were analysed by XRPD analysis and the resulting patterns compared to that of the reference. The observed solids and their ways of obtention are described in Table 16.

[12] = after 0.5 h, listed as EYP001 L-Lysine salt (Amorphous form)
[13] = after 1 h, listed as EYP001 L-Lysine salt (Amorphous form)
[14] = aqueous formulation, listed as EYP001 L-lysine salt (Amorphous Form)
[15] = versus EYP001 free acid, listed as EYP001 L-lysine salt (Amorphous Form)
[16] = Entry 4*: no solvent, 23% RH stress
[17] = Entry 5*: no solvent, 40° C./75% RH stress
[18] = Entry 6*: no solvent, 59% RH stress
[19] = Entry 11*: THF, flash evaporation

With O=C(O)c1cc2c(Cl)c(N3CCN(S(=O)(=O)c4c(Cl)cccc4Cl)CC3)ccc2o1 [EYP001, 4-chloro-5-[4-(2,6-dichlorophenyl)sulfonylpiperazin-1-yl]-1-benzofuran-2-carboxylic acid] the Soluble fraction ([1]; after 0.5 h) was 0.004 mg/mL of EYP001, the Soluble fraction ([1]; after 1 h) was 0.003 mg/mL of EYP001 and the Soluble fraction ([2]; 37° C.) was 0.20 mg/mL of EYP001. For the same compound, the pH ([2]; pH given with the soluble fraction) was 6.4, the Soluble fraction ([3]; after 0.5 h) was 0.38 mg/mL of EYP001 and the Soluble fraction ([3]; after 1 h) was 0.45 mg/mL of EYP001. For the same compound, the Soluble fraction ([3]; after 2 h) was 0.51 mg/mL of EYP001, the Soluble fraction ([3]; after 24 h) was 0.62 mg/mL of EYP001 and the pH ([3]; pH given with the soluble fraction, after 0.5 h) was “(pH = 4.9)”. For the same compound, the pH ([3]; pH given with the soluble fraction, after 1 h) was “(pH = 6.4)”, the pH ([3]; pH given with the soluble fraction, after 2 h) was “(pH = 4.9)” and the pH ([3]; pH given with the soluble fraction, after 24 h) was “(pH = 4.9)”. For the same compound, the Cmax [4] was 6990 ng/mL, the AUC(0-t) ([4]; read-out: Mean AUC0-24) was 52300 ng·h/mL and the Cmax [5] was 5580 ng/mL. For the same compound, the AUC(0-t) ([5]; read-out: Mean AUC0-24) was 29000 ng·h/mL, the Cmax [6] was 1350 ng/mL and the AUC(0-t) ([6]; read-out: Mean AUC0-24) was 3970 ng·h/mL. The Cmax ([7]; rat, in vivo, aqueous formulation) was 1440 ng/mL and the AUC(0-t) ([7]; rat, in vivo, aqueous formulation, read-out: Mean AUClast) was 3380 ng·h/mL.

For NCCCC[C@H](N)C(=O)O.O=C(O)c1cc2c(Cl)c(N3CCN(S(=O)(=O)c4c(Cl)cccc4Cl)CC3)ccc2o1 [EYP001 L-lysine salt amorphous form, L-lysine salt of 4-chloro-5-[4-(2,6-dichlorophenyl)sulfonylpiperazin-1-yl]-1-benzofuran-2-carboxylic acid], the “stability at high relative humidity (DVS)” value ([8]; 25° C.) was “unstable at high relative humidity”, the “mass loss during preliminary drying phase” value ([8]; 25° C./0% RH before sorption) was 2.6% and the “water uptake upon sorption (DVS)” value ([8]; 25° C./40% RH) was 3.5 % wt. For the same compound, the “water uptake (DVS)” value ([8]; 25° C./60% RH, listed as EYP001 L-Lysine salt amorphous form) was 6.8%, the “water uptake upon sorption (DVS)” value ([8]; 25° C./75% RH) was 11.5 % wt and the “water uptake upon sorption (DVS), after drastic decrease” value ([8]; 25° C./95% RH) was 4 % wt. For the same compound, the maximum hysteresis sorption/desorption ([8]; 25° C., listed as EYP001 L-Lysine salt amorphous form) was 10.3%, the “mass below the initial mass after desorption” value ([8]; back to 25° C./0% RH after full cycle) was “about 1.3 % wt” and the “hygroscopicity (DVS)” value ([8]; hygroscopic above 2% mass gain at 25° C./60% RH, listed as EYP001 L-Lysine salt amorphous form) was “hygroscopic”. For the same compound, the “onset temperature of thermal decomposition (TGA)” value ([9]; heater ramp 10 ° C./min, nitrogen) was 241 °C, the “mass loss before the beginning of thermal decomposition (TGA)” value ([9]; upon heating) was 2.4% and the time found stable [10] was “at least 19 days”. The Soluble fraction [1, 12] was 0.029 mg/mL of EYP001, the Soluble fraction [1, 13] was 0.023 mg/mL of EYP001 and the Soluble fraction [3, 12] was 1.12 mg/mL of EYP001. The Soluble fraction [3, 13] was 1.13 mg/mL of EYP001, the Soluble fraction ([3]; after 2 h, listed as EYP001 L-Lysine salt (Amorphous form)) was 1.12 mg/mL of EYP001 and the Soluble fraction ([3]; after 24 h, listed as EYP001 L-Lysine salt (Amorphous form)) was 1.11 mg/mL of EYP001. For the same compound, the pH ([3]; pH printed with the soluble fraction, after 0.5 h, listed as EYP001 L-Lysine salt (Amorphous form)) was “(pH = 4.9)”, the pH ([3]; pH printed with the soluble fraction, after 1 h, listed as EYP001 L-Lysine salt (Amorphous form)) was “(pH = 4.9)” and the pH ([3]; pH printed with the soluble fraction, after 24 h, listed as EYP001 L-Lysine salt (Amorphous form)) was “(pH = 5.0)”. The “Mean AUClast” value [7, 14] was 4764.7 ng·h/mL, the “Mean Cmax” value [7, 14] was 2130.0 ng/mL and the “% increase/EYP001 (AUClast)” value [7, 15] was “+41.1%”. The “% increase/EYP001 (Cmax)” value [7, 15] was “+47.4%”, the Results [11, 16] was “solid” and the XRPD [11, 16] was “Amorphous”. The Results [11, 17] was “solid”, the XRPD [11, 17] was “Form I” and the Results [11, 18] was “solid”. For the same compound, the XRPD [11, 18] was “Form I”, the Results ([11]; Entry 9*: no solvent, milling) was “solid” and the XRPD ([11]; Entry 9*: no solvent, milling) was “Amorphous”. The Results [11, 19] was “solid” and the XRPD [11, 19] was “Amorphous”.
